According to ChEMBL document CHEMBL5137022, “Antitumor Activity of Rutaecarpine in Human Colorectal Cancer Cells by Suppression of Wnt/β-Catenin Signaling” (J Nat Prod, 2022):
Active and inactive are the calls of the source. No cut-off for these calls is given here.

Key:
LS174T [1] = test: Downregulation of survivin expression in human LS174T cells at 2.5 to 20 uM incubated for 24 hrs by Western blot analysis; assay type: functional, cell-based; details: dose 2.5-20 µM
LS174T [2] = test: Induction of cell cycle arrest in human LS174T cells assessed as accumulation of cells at sub-G1 phase at 20 uM measured at 12 hrs by RNase A/propidium iodide staining based flow cytometric analysis (reference value: 0.7 %); assay type: functional
SW480 = test: Antiproliferative activity against human SW480 cells harboring wild type beta-catenin assessed as reduction in cell viability measured after 72 hrs by SRB assay; assay type: functional, cell-based; details: SW480, 72 h
LS174T [3] = test: Induction of cell cycle arrest in human LS174T cells assessed as downregulation of CDK6 expression measured after 24 hrs by Western blot analysis; assay type: functional, cell-based; details: dose 5-20 µM, DDE = dose-dependent effect
Mus musculus [4] = test: Downregulation of Ki-67 expression in tumor of BALB/c mouse xenografted with human LS174T cells at 10 to 30 mg/kg, ip administered 3 times per week for 21 days by immunohistochemical based analysis; assay type: functional, organism-based; details: dose 10-30 mg/kg, time 21.0 day
Mus musculus [5] = test: Downregulation of c-Myc expression in tumor of BALB/c mouse xenografted with human LS174T cells at 10 to 30 mg/kg, ip administered 3 times per week for 21 days by immunohistochemical based analysis; assay type: functional, organism-based; details: dose 10-30 mg/kg, time 21.0 day
LS174T [6] = test: Induction of cell cycle arrest in human LS174T cells assessed as accumulation of cells at sub-G1 phase at 20 uM measured at 48 hrs by RNase A/propidium iodide staining based flow cytometric analysis (reference value: 0.7 %); assay type: functional
LS174T [7] = test: Induction of apoptosis in human LS174T cells assessed as upregulation of cleaved caspase-3 expression measured after 48 hrs by Western blot analysis; assay type: functional, cell-based; details: dose 20-40 µM, DDE = dose-dependent effect
LS174T [8] = test: Induction of cell cycle arrest in human LS174T cells assessed as accumulation of cells at S phase at 20 uM measured at 12 hrs by RNase A/propidium iodide staining based flow cytometric analysis (reference value: 11.4 %); assay type: functional
Mus musculus [9] = test: Downregulation of N-cadherin expression in tumor of BALB/c mouse xenografted with human LS174T cells at 10 to 30 mg/kg, ip administered 3 times per week for 21 days by Western blot analysis; assay type: functional, organism-based; details: dose 10-30 mg/kg, time 21.0 day
LS174T [10] = test: Induction of cell cycle arrest in human LS174T cells assessed as accumulation of cells […] at 20 uM measured after 24 hrs by RNase A/propidium iodide staining based flow cytometric analysis (reference value: 1.3 %); assay type: functional
LS174T [11] = test: Induction of cell cycle arrest in human LS174T cells assessed as accumulation of cells at G0/G1 phase at 20 uM measured after 24 hrs by RNase A/propidium iodide staining based flow cytometric analysis (reference value: 71.7 %); assay type: functional
LS174T [12] = test: Antitumor activity against human LS174T cells xenografted in BALB/c nude mouse assessed as reduction in tumor weight at 30 mg/kg, ip administered 3 times per week for 21 days by electronic caliper method; assay type: functional; design: scale not given: the % may be the effect or the level left; details: time 21 day
LS174T [13] = test: Induction of apoptosis in human LS174T cells assessed as increase in early apoptotic cells at 20 to 40 uM measured after 48 hrs by AnnexinV-FITC/PI staining based flowcytometry analysis; assay type: functional, cell-based; details: dose 20-40 µM
LS174T [14] = test: Induction of cell cycle arrest in human LS174T cells assessed as accumulation of cells at G2/M phase at 20 uM measured at 36 hrs by RNase A/propidium iodide staining based flow cytometric analysis (reference value: 12.9 %); assay type: functional
LS174T [15] = test: Induction of cell cycle arrest in human LS174T cells assessed as accumulation of cells at G2/M phase at 5 uM measured after 24 hrs by RNase A/propidium iodide staining based flow cytometric analysis (reference value: 12.2 %); assay type: functional
LS174T [16] = test: Induction of cell cycle arrest in human LS174T cells assessed as accumulation of cells at sub-G1 phase at 20 uM measured at 24 hrs by RNase A/propidium iodide staining based flow cytometric analysis (reference value: 0.7 %); assay type: functional
LS174T [17] = test: Induction of apoptosis in human LS174T cells assessed as total cell death at 40 uM measured after 48 hrs by AnnexinV-FITC/PI staining based flowcytometry analysis relative to control; assay type: functional
LS174T [18] = test: Induction of apoptosis in human LS174T cells assessed as downregulation of survivin expression measured after 48 hrs by Western blot analysis; assay type: functional, cell-based; details: dose 20-40 µM, DDE = dose-dependent effect
LS174T [19] = test: Induction of cell cycle arrest in human LS174T cells assessed as downregulation of cyclin D1 expression measured after 24 hrs by Western blot analysis; assay type: functional, cell-based; details: dose 5-20 µM, DDE = dose-dependent effect
LS174T [20] = test: Induction of apoptosis in human LS174T cells assessed as increase in late apoptotic cells at 20 to 40 uM measured after 48 hrs by AnnexinV-FITC/PI staining based flowcytometry analysis; assay type: functional, cell-based; details: dose 20-40 µM
LS174T [21] = test: Induction of cell cycle arrest in human LS174T cells assessed as accumulation of cells at G2/M phase at 10 uM measured after 24 hrs by RNase A/propidium iodide staining based flow cytometric analysis (reference value: 12.2 %); assay type: functional
LS174T [22] = test: Antitumor activity against human LS174T cells xenografted in BALB/c nude mouse assessed as reduction in tumor volume at 10 mg/kg, ip administered 3 times per week for 21 days by electronic caliper method; assay type: functional; design: scale not given: the % may be the effect or the level left; details: time 21 day
LS174T [23] = test: Downregulation of c-Myc expression in human LS174T cells at 2.5 to 20 uM incubated for 24 hrs by Western blot analysis; assay type: functional, cell-based; details: dose 2.5-20 µM
LS174T [24] = test: Induction of cell cycle arrest in human LS174T cells assessed as downregulation of CDK2 expression measured after 24 hrs by Western blot analysis; assay type: functional, cell-based; details: dose 5-20 µM, DDE = dose-dependent effect
Mus musculus [25] = test: Downregulation of cyclin D1 expression in tumor of BALB/c mouse xenografted with human LS174T cells at 10 to 30 mg/kg, ip administered 3 times per week for 21 days by immunohistochemical based analysis; assay type: functional, organism-based; details: dose 10-30 mg/kg, time 21.0 day
LS174T [26] = test: Induction of cell cycle arrest in human LS174T cells assessed as accumulation of cells at G0/G1 phase at 20 uM measured at 36 hrs by RNase A/propidium iodide staining based flow cytometric analysis (reference value: 74.8 %); assay type: functional
LS174T [27] = test: Induction of cell cycle arrest in human LS174T cells assessed as accumulation of cells at G0/G1 phase at 20 uM measured at 24 hrs by RNase A/propidium iodide staining based flow cytometric analysis (reference value: 74.8 %); assay type: functional
Mus musculus [28] = test: Downregulation of survivin expression in tumor of BALB/c mouse xenografted with human LS174T cells at 10 to 30 mg/kg, ip administered 3 times per week for 21 days by Western blot analysis; assay type: functional, organism-based; details: dose 10-30 mg/kg, time 21.0 day
LS174T [29] = test: Induction of cell cycle arrest in human LS174T cells assessed as accumulation of cells at S phase at 20 uM measured at 48 hrs by RNase A/propidium iodide staining based flow cytometric analysis (reference value: 11.4 %); assay type: functional
LS174T [30] = test: Antitumor activity against human LS174T cells xenografted in BALB/c nude mouse assessed as reduction in tumor weight at 10 mg/kg, ip administered 3 times per week for 21 days by electronic caliper method; assay type: functional; design: scale not given: the % may be the effect or the level left; details: time 21 day
LS174T [31] = test: Induction of cell cycle arrest in human LS174T cells assessed as accumulation of cells at G2/M phase at 20 uM measured at 48 hrs by RNase A/propidium iodide staining based flow cytometric analysis (reference value: 12.9 %); assay type: functional

For `O=c1c2ccccc2nc2n1CCc1c-2[nH]c2ccccc12` [RUTAECARPINE], the Activity (LS174T [1]) was “Active”, the Activity (LS174T [2]) was 0.5% and the IC50 (SW480) was greater than 50 µM. For the same compound, the Activity (LS174T [3]) was “Dde”, the Activity (Mus musculus [4]) was “Active” and the Activity (Mus musculus [5]) was “Active”. For the same compound, the Activity (LS174T [6]) was 13.9%, the Activity (LS174T [7]) was “Dde” and the Activity (LS174T [8]) was 2.4%. The Activity (Mus musculus [9]) was “Active”, the Activity (LS174T [10]) was 1.5% and the Activity (LS174T [11]) was 87.3%. For the same compound, the Activity (LS174T [12]) was 41.5%, the Activity (LS174T [13]) was “Active” and the Activity (LS174T [14]) was 4.5%. For the same compound, the Activity (LS174T [15]) was 11.8%, the Activity (LS174T [16]) was 2.7% and the Activity (LS174T [17]) was 85.4%. For the same compound, the Activity (LS174T [18]) was “Dde”, the Activity (LS174T [19]) was “Dde” and the Activity (LS174T [20]) was “Active”. For the same compound, the Activity (LS174T [21]) was 9.6%, the Activity (LS174T [22]) was 25.9% and the Activity (LS174T [23]) was “Active”. The Activity (LS174T [24]) was “Dde”, the Activity (Mus musculus [25]) was “Active” and the Activity (LS174T [26]) was 87.4%. For the same compound, the Activity (LS174T [27]) was 89.5%, the Activity (Mus musculus [28]) was “Active” and the Activity (LS174T [29]) was 4.7%. The Activity (LS174T [30]) was 68.3% and the Activity (LS174T [31]) was 4.4%.
